The nature of data set [1]: Cell viability, PrestoBlue Assay. The class given is cell-based, human. Conditions: human; read-out: Cell viability, % of the background corrected DMSO control value. How it is done:
The effect of the peptides on cell viability can be assessed in cultured cells using suitable assay of viability such as the PrestoBlue® assay (Thermo Fisher Scientific, Waltham, Mass.). Peptides were initially prepared as 10 mM stock in DMSO and tested at a final concentration of 10 μM (0.1% DMSO). […] PrestoBlue Assay Reagent was purchased from Thermo Fisher Scientific. A172 human brain glioblastoma cell line was purchased from American Type Culture Collection (Manassas, Va.). A172 cells were grown in DMEM supplemented with 10% FBS with 100 IU/ml penicillin and 100 μg/ml streptomycin. Cultures were maintained at 37° C. in a humidified atmosphere of 5% CO2/95% air. A172 cells were seeded at 8,000 cells per well on 96-well plates. […] Cell viability was determined using a PrestoBlue Assay reagent […] according to the manufacturer's instructions. Absorption for each sample well on the plate was measured using a Cytation 3 plate reader at 560 nm and 590 nm (BioTek, Winooski, Vt.). Activity was calculated relative to 0.1% DMSO untreated control. Treatment with 0.1% DMSO alone was used as the cell viability activity control. The relative standard deviation of the DMSO control was <5%.

The subject of data set [2] is SH-SY5Y Neuroblastoma Cells. Briefly: ATP levels (CellTiter-Glo). The class given is cell-based, human. Particulars: staurosporine 1 μM. The protocol:
The effect of the peptides on cellular metabolism can be assessed using an assay of ATP levels in cultured cells such as human neuroblastoma cells. Peptides were initially prepared as 10 mM stock in DMSO and used at a final concentration of 10 μM (0.1% DMSO). […] CellTiter-Glo® Assay kit was purchased from Promega. SH-SY5Y human bone marrow neuroblastoma cell line was purchased from American Type Culture Collection (Manassas, Va.) and licensed from Memorial Sloan-Kettering Cancer Center (New York, N.Y.). SH-SY5Y cells were grown in DMEM/F12 medium supplemented with 10% FBS with 100 IU/ml penicillin and 100 μg/ml streptomycin. Cultures were maintained at 37° C. in a humidified atmosphere of 5% CO2/95% air. SH-SY5Y cells were seeded at 30,000 cells per well on 96-well plates. […] ATP levels were determined using a CellTiter-Glo Assay kit (Promega) according to the manufacturer's instructions. Luminescence for each sample well on the plate was measured using a Cytation 3 plate reader (BioTek, Winooski, Vt.). Activity was calculated relative to 0.1% DMSO treated control. The relative standard deviation of the result for the 0.1% DMSO treated control was <5%.

The structures appear in SMILES notation.

`CN[C@@H]1C[C@H]2O[C@@](C)([C@@H]1OC)n1c3ccccc3c3c4c(c5c6ccccc6n2c5c31)C(=O)NC4` [staurosporine, Staurosporine, reference compound]: the viability at 1 µM in data set [1] is less than 75%. The “ATP levels, % of the 0.1% DMSO treated control value” in data set [2] is less than 5%.

Usually viability stands for a read-out of living cells in per cent, often relative to untreated cells.
